Assay results from article PMC4076210, “Discovery of Novel AKT Inhibitors with Enhanced Anti-Tumor Effects in Combination with the MEK Inhibitor” (PLoS ONE, 2014).
Where two headings read alike, the source gives them in different places.

Legend:
Assay in all cases: Kinase panel
Assay type in all cases: biochemical
Arg(m) = biological target: T1, Arg(m) (Mus musculus, UniProt Q4JIM5)
T1 construct: purchased Millipore KinaseProfiler

TAK1(h) = biological target: T2, TAK1(h) (Homo sapiens, UniProt O43318)
T2 construct: purchased Millipore KinaseProfiler
T2 sequence (O43318 1-303 limits assumed): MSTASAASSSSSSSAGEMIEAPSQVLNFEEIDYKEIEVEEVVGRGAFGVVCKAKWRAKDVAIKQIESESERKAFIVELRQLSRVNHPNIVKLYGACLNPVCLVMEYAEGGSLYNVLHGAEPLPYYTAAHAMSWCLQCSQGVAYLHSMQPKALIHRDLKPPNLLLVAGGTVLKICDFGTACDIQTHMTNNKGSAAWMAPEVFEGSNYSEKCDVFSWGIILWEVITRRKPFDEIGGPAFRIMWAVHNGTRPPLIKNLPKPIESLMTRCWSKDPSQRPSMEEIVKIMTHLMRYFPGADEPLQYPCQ

CK1δ(h) = biological target: T3, CK1δ(h) (Homo sapiens, UniProt P48730)
T3 construct: purchased Millipore KinaseProfiler

EGFR(h) = biological target: T4, EGFR(h) (Homo sapiens, UniProt P00533)
T4 construct: purchased Millipore KinaseProfiler

Itk(h) = biological target: T5, Itk(h) (Homo sapiens, UniProt Q08881)
T5 construct: purchased Millipore KinaseProfiler
T5 sequence (Q08881 1-620): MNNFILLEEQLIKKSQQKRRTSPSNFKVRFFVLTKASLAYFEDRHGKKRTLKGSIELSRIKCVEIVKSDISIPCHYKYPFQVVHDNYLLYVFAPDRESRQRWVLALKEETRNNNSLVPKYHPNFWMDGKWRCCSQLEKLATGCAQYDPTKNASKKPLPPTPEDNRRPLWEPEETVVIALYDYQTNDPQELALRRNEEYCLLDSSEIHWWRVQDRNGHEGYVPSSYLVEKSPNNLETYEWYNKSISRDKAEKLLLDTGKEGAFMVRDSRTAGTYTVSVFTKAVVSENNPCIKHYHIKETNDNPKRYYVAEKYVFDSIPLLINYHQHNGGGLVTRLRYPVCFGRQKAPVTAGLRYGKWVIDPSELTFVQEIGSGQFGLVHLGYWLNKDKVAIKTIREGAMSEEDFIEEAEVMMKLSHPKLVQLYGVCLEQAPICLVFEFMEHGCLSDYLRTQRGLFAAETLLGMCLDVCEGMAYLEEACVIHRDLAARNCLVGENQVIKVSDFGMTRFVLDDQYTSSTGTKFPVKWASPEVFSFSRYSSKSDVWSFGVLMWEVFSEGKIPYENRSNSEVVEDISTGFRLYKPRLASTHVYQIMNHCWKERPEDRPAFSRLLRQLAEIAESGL

TAO2(h) = biological target: T6, TAO2(h) (Homo sapiens, UniProt Q9UL54)
T6 construct: purchased Millipore KinaseProfiler
T6 sequence (Q9UL54 1-1235): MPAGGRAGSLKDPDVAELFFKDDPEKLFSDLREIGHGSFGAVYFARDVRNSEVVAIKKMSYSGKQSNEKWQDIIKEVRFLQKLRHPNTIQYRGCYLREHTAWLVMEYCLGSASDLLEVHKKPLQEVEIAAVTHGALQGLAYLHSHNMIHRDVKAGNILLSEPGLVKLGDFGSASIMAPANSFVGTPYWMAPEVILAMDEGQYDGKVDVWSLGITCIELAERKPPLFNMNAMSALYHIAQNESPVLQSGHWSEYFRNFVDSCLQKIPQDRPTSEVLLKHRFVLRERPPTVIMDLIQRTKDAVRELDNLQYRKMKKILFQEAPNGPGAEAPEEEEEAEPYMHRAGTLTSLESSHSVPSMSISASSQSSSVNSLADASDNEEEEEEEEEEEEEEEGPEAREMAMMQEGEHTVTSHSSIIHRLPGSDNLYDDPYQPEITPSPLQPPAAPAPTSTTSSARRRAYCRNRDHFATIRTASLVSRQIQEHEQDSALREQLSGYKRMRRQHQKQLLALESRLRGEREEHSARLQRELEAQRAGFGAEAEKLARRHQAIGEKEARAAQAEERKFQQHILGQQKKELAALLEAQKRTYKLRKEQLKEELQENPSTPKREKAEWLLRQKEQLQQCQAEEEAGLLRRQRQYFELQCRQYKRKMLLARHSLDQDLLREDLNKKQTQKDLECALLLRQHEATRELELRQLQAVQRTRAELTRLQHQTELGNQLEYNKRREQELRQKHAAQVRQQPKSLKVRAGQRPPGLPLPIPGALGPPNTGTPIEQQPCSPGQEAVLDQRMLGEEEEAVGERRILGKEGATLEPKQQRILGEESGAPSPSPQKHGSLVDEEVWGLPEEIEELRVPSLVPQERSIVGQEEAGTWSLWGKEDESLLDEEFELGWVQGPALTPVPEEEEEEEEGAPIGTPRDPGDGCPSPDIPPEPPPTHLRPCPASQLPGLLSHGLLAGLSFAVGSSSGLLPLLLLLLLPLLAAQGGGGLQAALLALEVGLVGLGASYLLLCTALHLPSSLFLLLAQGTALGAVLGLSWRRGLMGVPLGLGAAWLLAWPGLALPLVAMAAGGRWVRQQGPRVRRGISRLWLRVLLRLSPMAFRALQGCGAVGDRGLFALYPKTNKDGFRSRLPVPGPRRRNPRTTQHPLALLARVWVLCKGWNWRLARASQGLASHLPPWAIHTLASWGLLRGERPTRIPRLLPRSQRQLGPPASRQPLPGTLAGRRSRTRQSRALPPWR

T1 sequence (Q4JIM5 2-1182 limits assumed): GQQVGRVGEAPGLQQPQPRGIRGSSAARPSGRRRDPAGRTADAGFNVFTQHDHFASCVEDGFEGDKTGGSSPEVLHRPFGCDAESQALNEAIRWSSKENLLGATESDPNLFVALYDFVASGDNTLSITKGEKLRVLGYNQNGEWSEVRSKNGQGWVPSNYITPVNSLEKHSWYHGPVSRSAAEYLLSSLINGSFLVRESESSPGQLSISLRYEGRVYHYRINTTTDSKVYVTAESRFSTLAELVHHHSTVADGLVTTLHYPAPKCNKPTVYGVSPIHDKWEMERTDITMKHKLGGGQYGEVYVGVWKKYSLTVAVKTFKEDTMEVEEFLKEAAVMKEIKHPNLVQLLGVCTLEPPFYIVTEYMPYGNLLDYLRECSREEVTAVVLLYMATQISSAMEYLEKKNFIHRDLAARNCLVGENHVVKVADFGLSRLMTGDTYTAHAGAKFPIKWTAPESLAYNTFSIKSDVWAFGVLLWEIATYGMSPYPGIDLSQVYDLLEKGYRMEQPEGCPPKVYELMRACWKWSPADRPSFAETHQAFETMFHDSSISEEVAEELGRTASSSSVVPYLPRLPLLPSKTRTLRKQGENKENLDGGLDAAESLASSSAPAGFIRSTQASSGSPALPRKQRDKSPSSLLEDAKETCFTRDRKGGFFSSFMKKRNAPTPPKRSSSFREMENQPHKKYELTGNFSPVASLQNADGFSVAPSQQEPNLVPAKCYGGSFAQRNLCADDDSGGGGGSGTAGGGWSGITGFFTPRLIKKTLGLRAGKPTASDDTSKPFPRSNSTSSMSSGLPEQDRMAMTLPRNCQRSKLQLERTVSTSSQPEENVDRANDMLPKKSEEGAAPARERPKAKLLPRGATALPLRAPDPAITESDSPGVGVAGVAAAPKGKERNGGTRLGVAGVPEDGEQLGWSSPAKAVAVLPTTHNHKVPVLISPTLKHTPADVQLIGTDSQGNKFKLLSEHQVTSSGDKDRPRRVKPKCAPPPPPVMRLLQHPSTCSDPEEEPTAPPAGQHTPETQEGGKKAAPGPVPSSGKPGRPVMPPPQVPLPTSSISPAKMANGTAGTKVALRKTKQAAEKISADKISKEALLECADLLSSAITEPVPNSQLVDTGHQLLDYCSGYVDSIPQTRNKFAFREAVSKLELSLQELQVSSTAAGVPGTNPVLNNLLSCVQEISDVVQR
T3 sequence (P48730 whole entry): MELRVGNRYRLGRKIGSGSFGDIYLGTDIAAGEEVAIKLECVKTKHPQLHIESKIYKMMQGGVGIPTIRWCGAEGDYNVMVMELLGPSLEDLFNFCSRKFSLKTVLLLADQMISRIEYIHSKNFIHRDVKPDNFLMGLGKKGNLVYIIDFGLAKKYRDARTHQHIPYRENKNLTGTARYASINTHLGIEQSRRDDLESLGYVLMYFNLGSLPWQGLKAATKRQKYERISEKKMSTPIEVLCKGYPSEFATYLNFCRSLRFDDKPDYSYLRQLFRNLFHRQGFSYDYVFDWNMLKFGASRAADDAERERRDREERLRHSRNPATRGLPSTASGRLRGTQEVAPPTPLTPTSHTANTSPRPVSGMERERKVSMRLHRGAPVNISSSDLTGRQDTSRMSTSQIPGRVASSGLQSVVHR
T4 sequence (P00533 25-1210): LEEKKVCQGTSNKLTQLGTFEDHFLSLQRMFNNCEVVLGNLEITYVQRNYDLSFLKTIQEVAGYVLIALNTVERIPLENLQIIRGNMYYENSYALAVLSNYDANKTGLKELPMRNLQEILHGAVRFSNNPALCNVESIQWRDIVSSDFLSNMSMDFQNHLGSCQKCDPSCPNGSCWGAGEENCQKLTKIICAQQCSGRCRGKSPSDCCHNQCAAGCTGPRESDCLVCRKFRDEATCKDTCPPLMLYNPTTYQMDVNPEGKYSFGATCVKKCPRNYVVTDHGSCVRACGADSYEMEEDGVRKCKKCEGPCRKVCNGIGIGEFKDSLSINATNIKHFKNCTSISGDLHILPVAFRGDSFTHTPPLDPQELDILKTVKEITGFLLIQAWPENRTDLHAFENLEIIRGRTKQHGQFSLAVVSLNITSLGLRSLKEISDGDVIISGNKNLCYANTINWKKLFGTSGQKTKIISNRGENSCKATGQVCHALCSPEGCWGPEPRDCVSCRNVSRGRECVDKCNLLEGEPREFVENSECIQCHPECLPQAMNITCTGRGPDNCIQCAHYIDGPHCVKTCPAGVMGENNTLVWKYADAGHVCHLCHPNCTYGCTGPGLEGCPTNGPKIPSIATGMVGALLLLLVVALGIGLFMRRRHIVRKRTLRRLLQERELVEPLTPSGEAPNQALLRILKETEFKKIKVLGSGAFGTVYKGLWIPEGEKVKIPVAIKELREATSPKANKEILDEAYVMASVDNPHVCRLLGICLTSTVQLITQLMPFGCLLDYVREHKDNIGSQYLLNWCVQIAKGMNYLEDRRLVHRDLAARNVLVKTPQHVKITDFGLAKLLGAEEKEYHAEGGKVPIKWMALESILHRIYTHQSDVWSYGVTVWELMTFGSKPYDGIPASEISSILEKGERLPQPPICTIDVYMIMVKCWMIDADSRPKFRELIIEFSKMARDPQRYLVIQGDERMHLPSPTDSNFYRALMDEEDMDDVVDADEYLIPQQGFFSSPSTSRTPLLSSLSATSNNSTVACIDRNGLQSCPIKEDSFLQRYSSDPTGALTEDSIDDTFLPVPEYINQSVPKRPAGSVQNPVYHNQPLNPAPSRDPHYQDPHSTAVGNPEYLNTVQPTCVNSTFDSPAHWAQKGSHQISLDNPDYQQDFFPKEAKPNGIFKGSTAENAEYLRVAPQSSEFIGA

For `Cn1ncc(Cl)c1-c1cc(C(=O)N[C@H](CN)Cc2cccc(F)c2)sc1Cl` [GSK2110183], the inhibition at 0.5 µM (Arg(m)) was -1%, the inhibition at 10 µM (Arg(m)) was 1% and the inhibition at 0.5 µM (TAK1(h)) was -3%. For the same compound, the inhibition at 10 µM (TAK1(h)) was 1%, the inhibition at 0.5 µM (CK1δ(h)) was -1% and the inhibition at 10 µM (CK1δ(h)) was 49%. The inhibition at 0.5 µM (EGFR(h)) was -4%, the inhibition at 10 µM (EGFR(h)) was 2% and the inhibition at 0.5 µM (Itk(h)) was 0%. For the same compound, the inhibition at 10 µM (Itk(h)) was 2%, the inhibition at 0.5 µM (TAO2(h)) was -7% and the inhibition at 10 µM (TAO2(h)) was 12%.

Compound `Cn1ncc(Cl)c1-c1cc(C(=O)N[C@H](CN)Cc2ccc(F)c(F)c2)oc1Cl` [GSK2141795] has an inhibition at 0.5 µM (Arg(m); 0.5 µM, read-out: % Inhibition) of -1%, an inhibition at 10 µM (Arg(m); 10 µM, read-out: % Inhibition) of 7% and an inhibition at 0.5 µM (TAK1(h); 0.5 µM, read-out: % Inhibition) of -10%. For the same compound, the inhibition at 10 µM (TAK1(h); 10 µM, read-out: % Inhibition) was -10%, the inhibition at 0.5 µM (CK1δ(h); 0.5 µM, read-out: % Inhibition) was -2% and the inhibition at 10 µM (CK1δ(h); 10 µM, read-out: % Inhibition) was 63%. For the same compound, the inhibition at 0.5 µM (EGFR(h); 0.5 µM, read-out: % Inhibition) was -42%, the inhibition at 10 µM (EGFR(h); 10 µM, read-out: % Inhibition) was -40% and the inhibition at 0.5 µM (Itk(h); 0.5 µM, read-out: % Inhibition) was -15%. The inhibition at 10 µM (Itk(h); 10 µM, read-out: % Inhibition) was -7%, the inhibition at 0.5 µM (TAO2(h); 0.5 µM, read-out: % Inhibition) was -5% and the inhibition at 10 µM (TAO2(h); 10 µM, read-out: % Inhibition) was -2%.
